Where “and” joins values, the source holds several entries; their conditions need not be identical. Identical values can stand only once.
Columns and labels:
[1] = target: T1, OX1 (Homo sapiens, UniProt O43613); experiment: Orexin receptor cell-based functional assay, [Ca2+]i by FLIPR, CHO-OX1 cells; conditions: FLIPR calcium, antagonism of EC90 of [OX], read-out: OXI, IC50
T1 construct: expressed in transfected cells; host or cells: CHO (CHO-OX1)
T1 sequence (O43613 1-425): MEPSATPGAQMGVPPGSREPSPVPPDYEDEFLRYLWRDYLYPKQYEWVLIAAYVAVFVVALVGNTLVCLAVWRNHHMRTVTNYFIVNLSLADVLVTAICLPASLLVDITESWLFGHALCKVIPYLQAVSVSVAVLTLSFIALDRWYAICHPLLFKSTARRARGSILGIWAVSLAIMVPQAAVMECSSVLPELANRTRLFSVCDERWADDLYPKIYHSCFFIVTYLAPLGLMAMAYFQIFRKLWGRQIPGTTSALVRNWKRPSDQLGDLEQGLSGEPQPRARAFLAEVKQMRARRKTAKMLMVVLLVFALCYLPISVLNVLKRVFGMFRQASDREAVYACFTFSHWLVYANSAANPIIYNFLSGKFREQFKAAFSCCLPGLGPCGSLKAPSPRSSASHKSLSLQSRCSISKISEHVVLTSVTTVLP
Experimental: (§1) Measurement of [Ca^2+]i using a FLIPR: CHO-OX1 or CHO-OX2 cells were seeded into black-walled clear-base 384-well plates (Corning, catalog #3712) at a density of 20,000 cells per well in F12-K medium supplemented with 10% FBS and then incubated in a 5% CO2, 37° C. incubator overnight to reach 90% confluency. The cells were incubated with equal volume of calcium6 loading buffer (Molecular Devices, Inc.) containing 2.5 mM probenecid at 37° C. for 2 h, followed by test compounds (dose-range 0.1 nM-10 μM) for another 30 min. The plates were then placed into a FLIPR (Molecular Devices, Inc.) to monitor fluorescence (λ excitation 488 nm, λ emission 540 nm) before and after the addition of EC90 of [OX].

[2] = target: T2, OX2 (Homo sapiens, UniProt O43614); experiment: Orexin receptor cell-based functional assay, [Ca2+]i by FLIPR, CHO-OX2 cells; conditions: FLIPR calcium, antagonism of EC90 of [OX]
T2 construct: expressed in transfected cells; host or cells: CHO (CHO-OX2)
T2 sequence (O43614 1-444): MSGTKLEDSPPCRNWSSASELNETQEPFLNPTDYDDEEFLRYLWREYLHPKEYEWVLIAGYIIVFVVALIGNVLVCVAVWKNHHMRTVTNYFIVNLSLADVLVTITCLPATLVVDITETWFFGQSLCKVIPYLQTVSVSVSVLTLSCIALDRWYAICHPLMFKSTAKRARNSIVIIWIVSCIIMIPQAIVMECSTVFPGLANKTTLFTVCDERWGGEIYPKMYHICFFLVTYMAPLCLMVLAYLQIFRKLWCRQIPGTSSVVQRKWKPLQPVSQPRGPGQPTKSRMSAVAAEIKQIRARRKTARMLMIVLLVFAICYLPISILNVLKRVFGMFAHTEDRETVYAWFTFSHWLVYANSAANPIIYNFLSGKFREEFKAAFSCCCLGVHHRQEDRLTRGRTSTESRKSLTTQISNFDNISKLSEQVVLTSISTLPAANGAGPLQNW
Experimental: as §1, with “[OX]. Results for exemplary compounds of Formulae (I), (Ia), (Ib), (II), (IIa), (III), (IIIa), (IV), (IVa), (V), or (Va) are shown in Table 3.” for “[OX].”

Row | SMILES | IC50 [1] | IC50 [2] [µM]
1 | Cc1nc(C(=O)N2CC(F)(F)C[C@@H](C)[C@H]2CNc2ncc(C(F)(F)F)cn2)c(-c2ncccc2C)s1 [Compound 75] | 12 nM | > 5
2 | C[C@@H]1CC(F)(F)CN(C(=O)c2cn(C)nc2-c2ccccn2)[C@@H]1CNc1cnc(C(F)(F)F)cn1 [Compound 158] | 62 nM | > 5
3 | C[C@@H]1CC(F)(F)CN(C(=O)c2nn(C)cc2-c2ccncn2)[C@@H]1CNc1ncc(C(F)(F)F)cn1 [Compound 241, ((2S,3R)-5,5-difluoro-3-methyl-2-(((5-(trifluoromethyl)pyrimidin-2-yl)amino)methyl)piperidin-1-yl)(1-methyl-4-(pyrimidin-4-yl)-1H-pyrazol-3-yl)methanone] | > 1000 nM | > 5
4 | C[C@@H]1CC(F)(F)CN(C(=O)c2cc(Cl)ccc2-n2nccn2)[C@@H]1CNc1cnc(C(F)(F)F)cn1 [Compound 154] | 12 nM | > 5
5 | C[C@@H]1CC(F)(F)CN(C(=O)c2cn(C)nc2-c2ccccn2)[C@@H]1CNc1ncc(C(F)(F)F)cn1 [Compound 93] | 156 nM | > 5
6 | COc1ccc(-n2nccn2)c(C(=O)N2CC(F)(F)C[C@@H](C)[C@H]2CNc2ccc(C(F)(F)F)cn2)n1 [Compound 202, ((2S,3R)-5,5-difluoro-3-methyl-2-(((5-(trifluoromethyl)pyridin-2-yl)amino)methyl)piperidin-1-yl)(6-methoxy-3-(2H-1,2,3-triazol-2-yl)pyridin-2-yl)methanone] | 150 nM | > 5
7 | Cc1nc(C(=O)N2CC(F)(F)C[C@@H](C)[C@H]2CNc2ncc(Cl)cn2)c(-c2ccc(F)cc2)s1 [Compound 69] | 9 nM | > 5
8 | Cc1nc(C(=O)N2CC(F)(F)C[C@@H](C)[C@H]2CNc2ncc(C(F)(F)F)cn2)c(-c2ccccc2)o1 [Compound 85] | 12 nM and 30 nM | > 5
9 | C[C@@H]1CC(F)(F)CN(C(=O)c2nn(C)cc2-c2cccc(C(F)(F)F)n2)[C@@H]1CNc1ncc(C(F)(F)F)cn1 [Compound 229, ((2S,3R)-5,5-difluoro-3-methyl-2-(((5-(trifluoromethyl)pyrimidin-2-yl)amino)methyl)piperidin-1-yl)(1-methyl-4-(6-(trifluoromethyl)pyridin-2-yl)-1H-pyrazol-3-yl)methanone] | 7 nM | > 5
10 | C[C@@H]1CC(F)(F)CN(C(=O)c2cc(C#N)ccc2-n2nccn2)[C@@H]1CNc1ncc(Cl)cn1 [Compound 15] | 46 nM | > 5
11 | C[C@@H]1CC(F)(F)CN(C(=O)c2nn(C)cc2-c2cccnc2)[C@@H]1CNc1cnc(C(F)(F)F)cn1 [Compound 155] | 38 nM | > 5
12 | C[C@@H]1CC(F)(F)CN(C(=O)c2nn(C)cc2-c2ncc(F)cn2)[C@@H]1COc1ncc(C(F)(F)F)cn1 [Compound 246] | 4820 nM | > 5
13 | Cc1ccc(-c2nnn(C)n2)c(C(=O)N2CC(F)(F)C[C@@H](C)[C@H]2CNc2ncc(C(F)(F)F)cn2)n1 [Compound 240, ((2S,3R)-5,5-difluoro-3-methyl-2-(((5-(trifluoromethyl)pyrimidin-2-yl)amino)methyl)piperidin-1-yl)(6-methyl-3-(2-methyl-2H-tetrazol-5-yl)pyridin-2-yl)methanone] | 29 nM | > 5
14 | COc1cccc(-c2sc(C)nc2C(=O)N2CC(F)(F)C[C@@H](C)[C@H]2CNc2cnc(C(F)(F)F)cn2)c1 [Compound 142] | 4 nM | > 5
15 | Cc1nc(C(=O)N2CC(F)(F)C[C@@H](C)[C@H]2CNc2ncc(C(F)(F)F)cn2)c(-c2ccc(F)cn2)s1 [Compound 72] | 237 nM | > 5
16 | Cc1ccc(-c2ccccn2)c(C(=O)N2CC(F)(F)C[C@@H](C)[C@H]2CNc2ncc(C(F)(F)F)cn2)n1 [Compound 16, ((2S,3R)-5,5-difluoro-3-methyl-2-(((5-(trifluoromethyl)pyrimidin-2-yl)amino)methyl)piperidin-1-yl)(6′-methyl-[2,3′-bipyridin]-2′-yl)methanone] | 60 nM | > 5
17 | Cc1nc(C(=O)N2CC(F)(F)C[C@@H](C)[C@H]2CNc2ncc(C(F)(F)F)cn2)c(-c2ccccn2)o1 [Compound 87] | > 1000 nM | > 5
18 | CC#Cc1ccc(C)nc1C(=O)N1CC(F)(F)C[C@@H](C)[C@H]1CNc1ncc(C(F)(F)F)cn1 [Compound 235, ((2S,3R)-5,5-difluoro-3-methyl-2-(((5-(trifluoromethyl)pyrimidin-2-yl)amino)methyl)piperidin-1-yl)(6-methyl-3-(prop-1-yn-1-yl)pyridin-2-yl)methanone] | 250 nM | > 5
19 | C[C@@H]1CC(F)(F)CN(C(=O)c2nn(C)cc2-c2ccc(F)cc2)[C@@H]1COc1ccc(C(F)(F)F)cn1 [Compound 205, ((2S,3R)-5,5-difluoro-3-methyl-2-(((5-(trifluoromethyl)pyridin-2-yl)oxy)methyl)piperidin-1-yl)(4-(4-fluorophenyl)-1-methyl-1H-pyrazol-3-yl)methanone] | 52 nM | > 5
20 | C[C@@H]1CC(F)(F)CN(C(=O)c2nn(C)cc2-c2ccc(Cl)cn2)[C@@H]1CNc1ncc(C(F)(F)F)cn1 [Compound 221, (4-(5-chloropyridin-2-yl)-1-methyl-1H-pyrazol-3-yl)((2S,3R)-5,5-difluoro-3-methyl-2-(((5-(trifluoromethyl)pyrimidin-2-yl)amino)methyl)piperidin-1-yl)methanone] | 2 nM | > 5
21 | C[C@@H]1CC(F)(F)CN(C(=O)c2nn(C)cc2-c2cc(Cl)ccn2)[C@@H]1CNc1ncc(C(F)(F)F)cn1 [Compound 227, (4-(4-chloropyridin-2-yl)-1-methyl-1H-pyrazol-3-yl)((2S,3R)-5,5-difluoro-3-methyl-2-(((5-(trifluoromethyl)pyrimidin-2-yl)amino)methyl)piperidin-1-yl)methanone] | 14 nM | > 5
22 | Cc1ccc(-c2cn(C)nc2C(=O)N2CC(F)(F)C[C@@H](C)[C@H]2CNc2ncc(C(F)(F)F)cn2)nc1 [Compound 44] | 10 nM | > 5
23 | C[C@@H]1CC(F)(F)CN(C(=O)c2nn(C)cc2-c2cncnc2)[C@@H]1CNc1ncc(C(F)(F)F)cn1 [Compound 230, ((2S,3R)-5,5-difluoro-3-methyl-2-(((5-(trifluoromethyl)pyrimidin-2-yl)amino)methyl)piperidin-1-yl)(1-methyl-4-(pyrimidin-5-yl)-1H-pyrazol-3-yl)methanone] | 74 nM | > 5
24 | Cc1nc(C(=O)N2CC(F)(F)C[C@@H](C)[C@H]2CNc2ncc(C(F)(F)F)cn2)c(-c2ccc(F)cc2)o1 [Compound 84] | 130 nM | > 5
25 | COc1ccc(-c2sc(C)nc2C(=O)N2CC(F)(F)C[C@@H](C)[C@H]2CNc2ncc(C(F)(F)F)cn2)nc1 [Compound 78] | 2 nM | > 5
26 | C[C@@H]1CC(F)(F)CN(C(=O)c2cn(C)nc2-c2ccccc2)[C@@H]1COc1ncc(C(F)(F)F)cn1 [Compound 209] | 280 nM | > 5
27 | Cc1ccc(-n2nccn2)c(C(=O)N2CC(F)(F)C[C@@H](C)[C@H]2CNc2ncc(Cl)cn2)c1 [Compound 6] | 8 nM | > 5
28 | Cc1cccnc1-c1cn(C)nc1C(=O)N1CC(F)(F)C[C@@H](C)[C@H]1CNc1ncc(C(F)(F)F)cn1 [Compound 39] | 1160 nM | > 5

Source: patent publication US12084437B2, “Halo-substituted piperidines as orexin receptor modulators” (AstraZeneca AB, priority 2016, dated 2024)
